Test results published in patent US7875618B2, “Substituted imidazo[1,5-a]quinoxalines useful as inhibitors of phosphodiesterase 10 for the treatment of neurological and other disorders” (Wyeth, priority 2007, dated 2011).

Columns and labels:
PDE10 from pig striatum = PDE10 from pig striatum (Sus scrofa, UniProt A0A287B941); assay: Inhibition of PDE10 from pig striatum ([3H]-cAMP SPA, Methods A and B); type: biochemical; settings: PDE10 pig
Method: Striatum from male Wistar rats (180-200 g), male hybrid pigs (150 kg) and male guinea pigs (CRL (HA), 500 g) respectively were collected and frozen at −70° C. At the day of preparation 0.5 g striatum was homogenised in 10 ml 50 mM Tris/Mg-buffer at 4° C. and centrifuged for one hour at 100000 g. The supernatant is called the cytosolic fraction and was removed and stored on ice. The pellet was resuspended in the same buffer, but containing 1% Triton and incubated for 45 min at 4° C. Both fractions were independently applied onto a 5 ml Hi Trap™ QHP column at the Äkta-FPLC. After washing the columns the bound PDE protein was eluted with an increasing sodium chloride gradient (0 mM-500 mM sodium chloride) in 50 mM Tris/Mg-buffer at 4° C. for the cytosolic fraction and in the presence of 1% Triton for the membrane fraction. […] The fractions with PDE10-activity were pooled and frozen in aliquots until use at −20° C. PDE10 activity was determined in a one step procedure in microtiter plates. […] Nonspecific activity was tested without the enzyme. The reaction was initiated by addition of the substrate solution and was carried out at 37° C. for 30 minutes. Enzymatic activity was stopped by addition of 25 μl YSi-SPA-beads (Amersham-Pharmacia). One hour later the mixture was measured in a liquid scintillation counter for microtiter plates (Microbeta Trilux). To pipette the incubation mixture a robot Biomek (Fa. Beckman) is used. […] For determination of IC50 values the Hill-plot, 2-parameter-model, was used. […] Striatum from male hybrid pigs (150 kg) were collected and frozen at −70° C. At the day of preparation 0.5 g striatum was homogenised in 10 ml 50 mM Tris/Mg-buffer at 4° C. and centrifuged for one hour at 100000 g. The supernatant was removed and the pellet was resuspended in the same buffer, but containing 1% Triton and incubated for 45 min at 4° C. The membrane fraction was applied onto a 5 ml Hi Trap™ QHP column at the Äkta-FPLC. After washing the column the bound PDE protein was eluted with an increasing sodium chloride gradient (0 mM-500 mM sodium chloride) in 50 mM Tris/Mg-buffer at 4° C. in the presence of 1% Triton. […] The fractions with PDE10-activity were pooled and frozen in aliquots until use at −20° C. PDE10 activity was determined in a one step procedure in microtiterplates. […] Nonspecific activity was tested without the enzyme. The reaction was initiated by addition of the substrate solution and was carried out at 37° C. for 30 minutes. Enzymatic activity was stopped by addition of 25 μl YSi-SPA-beads (Amersham-Pharmacia). One hour later the mixture was measured in a liquid scintillation counter for microtiterplates (Microbeta Trilux). To pipette the incubation mixture a robot Biomek (Fa. Beckman) is used. […] For determination of IC50 values the Hill-plot, 2-parameter-model, was used.

human recombinant PDE10A = target: T1, human recombinant PDE10A (Homo sapiens, UniProt Q9Y233); assay: Inhibition of human recombinant PDE10A ([3H]-cAMP SPA, Method B); type: biochemical; settings: read-out: PDE10 inhibition IC50 [nM] PDE10A human
T1 construct: made in house; host or cells: SF21 insect cells (baculovirus)
Method: The gene was than inserted into a baculovirus vector, ligated with the baculovirus DNA. The enzyme-protein was expressed in SF21-cells. The enzyme was isolated from these cells by harvesting the cells by a centrifugation at 200 g to collect the cells. The cells were resuspended in 50 mM Tris-HCl/5 mM MgCl2 buffer (pH=7.4) and lysed by a sonication of the cells. The cytosolic PDE10A was obtained by a centrifugation at 48000 g for 1 h in the supernatant and stored at −70° C. PDE10 activity was determined in a one step procedure in microtiterplates. […] Nonspecific activity was tested without the enzyme. The reaction was initiated by addition of the substrate solution and was carried out at 37° C. for 30 minutes. Enzymatic activity was stopped by addition of 25 μl YSi-SPA-beads (Amersham-Pharmacia). One hour later the mixture was measured in a liquid scintillation counter for microtiterplates (Microbeta Trilux). To pipette the incubation mixture a robot Biomek (Fa. Beckman) is used. […] For determination of IC50 values the Hill-plot, 2-parameter-model, was used.

T1 sequence (Q9Y233 1-779 isoform Q9Y233-1): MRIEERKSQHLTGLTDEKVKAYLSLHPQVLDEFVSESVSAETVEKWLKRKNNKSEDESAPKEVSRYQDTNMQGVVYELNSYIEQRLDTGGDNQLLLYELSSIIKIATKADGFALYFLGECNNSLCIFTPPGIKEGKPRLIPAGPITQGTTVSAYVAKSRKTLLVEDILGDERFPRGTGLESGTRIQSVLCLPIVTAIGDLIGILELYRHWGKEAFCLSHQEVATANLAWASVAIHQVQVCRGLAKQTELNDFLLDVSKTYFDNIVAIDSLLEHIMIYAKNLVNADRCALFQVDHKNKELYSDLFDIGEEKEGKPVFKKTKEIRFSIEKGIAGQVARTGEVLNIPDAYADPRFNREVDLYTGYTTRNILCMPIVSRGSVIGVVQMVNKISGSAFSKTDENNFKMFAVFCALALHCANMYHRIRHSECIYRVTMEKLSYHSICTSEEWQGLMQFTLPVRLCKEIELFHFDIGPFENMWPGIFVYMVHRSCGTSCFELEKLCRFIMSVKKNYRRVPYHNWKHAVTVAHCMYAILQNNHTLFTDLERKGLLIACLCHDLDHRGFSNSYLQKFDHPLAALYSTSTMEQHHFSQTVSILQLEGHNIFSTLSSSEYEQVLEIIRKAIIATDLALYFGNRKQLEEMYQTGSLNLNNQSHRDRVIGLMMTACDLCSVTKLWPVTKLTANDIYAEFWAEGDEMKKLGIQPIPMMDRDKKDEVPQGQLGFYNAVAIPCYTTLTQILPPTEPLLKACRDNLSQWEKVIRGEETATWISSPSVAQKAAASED

SMILES | melting point | IC50 (PDE10 from pig striatum) | IC50 (human recombinant PDE10A)
CCc1nc(C)c2c(N)nc3ccccc3n12 [Example 3, 1-Ethyl-3-methyl-imidazo(1,5-a)quinoxalin-4-ylamine] | 192 to 195 °C | ≥ 100 nM | –
CCCc1nc(C)c2c(N)nc3ccccc3n12 [Example 4, 3-Methyl-1-propyl-imidazo(1,5-a)quinoxalin-4-ylamine] | 187 to 188 °C | ≥ 100 nM | –
CCc1nc(C)c2c(N)nc3ccc(F)cc3n12 [Example 5, 1-Ethyl-8-fluoro-3-methyl-imidazo(1,5-a)quinoxalin-4-ylamine] | 238 to 239 °C | ≥ 100 nM | –
CCCc1nc(C)c2c(N)nc3ccc(F)cc3n12 [Example 6, 8-Fluoro-3-methyl-1-propyl-imidazo(1,5-a)quinoxalin-4-ylamine] | 240 to 243 °C | 10 to 100 nM | –
CCCc1nc(C)c2c(N)nc3ccc(OC)cc3n12 [Example 7, 8-Methoxy-3-methyl-1-propyl-imidazo(1,5-a)quinoxalin-4-ylamine] | 201 to 203 °C | – | 10 to 100 nM
Cc1nc(C2CCCCC2)n2c1c(C)nc1ccc(Cl)cc12 [Example 10, 8-Chloro-1-cyclohexyl-3,4-dimethyl-imidazo(1,5-a)quinoxaline] | 228 to 234 °C | 10 to 100 nM | –
CCc1nc(C)c2c(C)nc3ccccc3n12 [Example 11, 3,4-Dimethyl-1-ethyl-imidazo(1,5-a)quinoxaline] | 123 to 125 °C | ≥ 100 nM | –
CCc1nc(C)c2c(C)nc3ccc(F)cc3n12 [Example 12, 3,4-Dimethyl-1-ethyl-8-fluoro-imidazo(1,5-a)quinoxaline] | 139 to 142 °C | ≥ 100 nM | –
CCCc1nc(C)c2c(C)nc3ccc(F)cc3n12 [Example 13, 3,4-Dimethyl-8-fluoro-1-propyl-imidazo(1,5-a)quinoxaline] | 140 to 144 °C | 10 to 100 nM | –
Cc1nc(C2CCCCC2)n2c1c(C)nc1ccc(F)cc12 [Example 14, 1-Cyclohexyl-3,4-dimethyl-8-fluoro-imidazo(1,5-a)quinoxaline] | 195 to 200 °C | 10 to 100 nM | –
CCCc1nc(C)c2c(C)nc3ccc(OC)cc3n12 [Example 16, 3,4-Dimethyl-8-methoxy-1-propyl-imidazo(1,5-a)quinoxaline] | 99 to 101 °C | – | 10 to 100 nM
CCc1nc(C)c2c(C)nc3ccc(N4CCCCC4)cc3n12 [Example 17, 3,4-Dimethyl-1-ethyl-8-(piperidin-1-yl)-imidazo(1,5-a)quinoxaline] | 132 to 134 °C | 10 to 100 nM | –
COc1ccc2nc(N)c3c(C)nc(C4CCCCC4)n3c2c1 [Example 38, 1-Cyclohexyl-8-methoxy-3-methyl-imidazo[1,5-a]quinoxalin-4-ylamine] | 211 to 212 °C | – | 10 to 100 nM
CCCc1nc(C)c2c(N)nc3ccc(OCC4CC4)cc3n12 [Example 39, 8-Cyclopropylmethoxy-3-methyl-1-propyl-imidazo[1,5-a]quinoxalin-4-ylamine] | 163 to 167 °C | – | 10 to 100 nM
Cc1nc(C2CCCCC2)n2c1c(N)nc1ccc(OCC3CC3)cc12 [Example 40, 1-Cyclohexyl-8-cyclopropylmethoxy-3-methyl-imidazo[1,5-a]quinoxalin-4-ylamine] | 241 to 242 °C | 10 to 100 nM | ≥ 100 nM
COc1ccc2nc(C)c3c(C)nc(C4CCCCC4)n3c2c1 [Example 43, 1-Cyclohexyl-8-methoxy-3,4-dimethyl-imidazo[1,5-a]quinoxaline] | 165 to 169 °C | – | 10 to 100 nM
CCCc1nc(C)c2c(C)nc3c(OCC(F)(F)F)cc(OCC(F)(F)F)cc3n12 [Example 46, 3,4-Dimethyl-1-propyl-6,8-bis-(2,2,2-trifluoro-ethoxy)-imidazo[1,5-a]quinoxaline] | 200 to 206 °C | – | ≥ 100 nM

SMILES | melting point | IC50 (PDE10 from pig striatum) | IC50 (human recombinant PDE10A)
CCCc1nc(C)c2c(C)nc3cc(OC)ccc3n12 [Example 48, 7-Methoxy-3,4-dimethyl-1-propyl-imidazo[1,5-a]quinoxaline] | 111 to 117 °C | – | 10 to 100 nM
Cc1nc(-c2ccccc2Cl)n2c1c(C)nc1cc(OCc3c(F)cccc3F)ccc12 [Example 57, 1-(2-Chloro-phenyl)-7-(2,6-difluorobenzyloxy)-3,4-dimethyl-imidazo(1,5-a)quinoxaline] | – | ≤ 10 nM | 10 to 100 nM
Cc1nc(-c2ccccc2Cl)n2c1c(C)nc1cc(OCc3ccc4ccccc4n3)ccc12 [Example 58, 1-(2-Chloro-phenyl)-7-(quinolin-2-ylmethoxy)-3,4-dimethyl-imidazo(1,5-a)quinoxaline] | – | ≤ 10 nM | ≤ 10 nM
Cc1nc(-c2ccccc2Cl)n2c1c(C)nc1cc(OCc3cccc([N+](=O)[O-])c3)ccc12 [Example 59, 1-(2-Chloro-phenyl)-3,4-dimethyl-7-(3-nitrobenzyloxy)-imidazo(1,5-a)quinoxaline] | – | ≤ 10 nM | 10 to 100 nM
Cc1nc(-c2ccccc2Cl)n2c1c(C)nc1cc(OCc3cccc(N)c3)ccc12 [Example 60, 7-(3-Aminobenzyloxy)-1-(2-chlorophenyl)-3,4-dimethyl-imidazo(1,5-a)quinoxaline] | – | ≤ 10 nM | 10 to 100 nM
CNC(=O)Nc1cccc(COc2ccc3c(c2)nc(C)c2c(C)nc(-c4ccccc4Cl)n23)c1 [Example 61, N-1-{3-[1-(2-Chlorophenyl)-3,4-dimethyl-imidazo(1,5-a)quinoxalin-7-yloxymethyl]-phenyl}-N′-methyl-urea] | – | ≤ 10 nM | 10 to 100 nM
CCc1nc(C)c2c(Cl)nc3ccccc3n12 [Intermediate B3] | 125 to 128 °C | 10 to 100 nM | –
CCCc1nc(C)c2c(Cl)nc3ccccc3n12 [Intermediate B4, 4-Chloro-3-methyl-1-propyl-imidazo(1,5-a)quinoxaline] | 99 to 101 °C | 10 to 100 nM | –
CCc1nc(C)c2c(Cl)nc3ccc(F)cc3n12 [Intermediate B5] | 157 to 160 °C | 10 to 100 nM | –
CCCc1nc(C)c2c(Cl)nc3ccc(F)cc3n12 [Intermediate B6, 4-Chloro-8-fluoro-3-methyl-1-propyl-imidazo(1,5-a)quinoxaline] | 133 to 135 °C | 10 to 100 nM | –
Cc1nc(C2CCCCC2)n2c1c(Cl)nc1ccc(F)cc12 [Intermediate B7, 4-Chloro-1-cyclohexyl-8-fluoro-3-methyl-imidazo(1,5-a)quinoxaline] | 205 to 210 °C | 10 to 100 nM | –
Cc1nc(C2CCCCC2)n2c1c(Cl)nc1ccc(Cl)cc12 [Intermediate B9, 4,8-Dichloro-1-cyclohexyl-3-methyl-imidazo(1,5-a)quinoxaline] | 244 to 248 °C | ≥ 100 nM | –
CCCc1nc(C)c2c(Cl)nc3ccc(N4CCCCC4)cc3n12 [Intermediate B10] | 105 to 108 °C | 10 to 100 nM | –
COc1ccc2nc(Cl)c3c(C)nc(C4CCCCC4)n3c2c1 [Intermediate B11] | 212 to 215 °C | – | –
Cc1nc(C2CCCCC2)n2c1c(Cl)nc1ccc(OCC3CC3)cc12 [Intermediate B13] | 165 to 168 °C | – | –
CCCc1nc(C)c2c(Cl)nc3cc(OC)ccc3n12 [Intermediate B15] | 154 to 159 °C | – | –
